B1: OVA: ovalbumin, positive control in the antigenicity test (protein, UniProt P01012 2-386, looked up)
Ovalbumin: GSIGAASMEFCFDVFKELKVHHANENIFYCPIAIMSALAMVYLGAKDSTRTQINKVVRFDKLPGFGDSIEAQCGTSVNVHSSLRDILNQITKPNDVYSFSLASRLYAEERYPILPEYLQCVKELYRGGLEPINFQTAADQARELINSWVESQTNGIIRNVLQPSSVDSQTAMVLVNAIVFKGLWEKAFKDEDTQAMPFRVTEQESKPVQMMYQIGLFRVASMASEKMKILELPFASGTMSMLVLLPDEVSGLEQLESIINFEKLTEWTSSNVMEERKIKVYLPRMKMEEKYNLTSVLMAMGITDVFSSSANLSGISSAESLKISQAVHAAHAEINEAGREVVGSAEAGVDAASVSEEFRADHPFLFCIKHIATNAVLFFGRCVSP

Experiments:
[1] = tested on: Guinea pigs; assay: Test for antigenicity in guinea pigs (active systemic anaphylaxis); assay type: in vivo; settings: sensitized s.c., induced i.v.
Experimental: Guinea pigs were sensitized by 3 times of subcutaneous administration of K4 or G4L4 alone or an emulsion of K4 with an immunostimulant, Freund's complete adjuvant (FCA). K4 or G4L4 was intravenously administered to the animals 12 days after the final sensitization to induce active systemic anaphylaxis. As a positive control, a similar test was performed for ovalbumin (OVA).
The results of the above test were shown in Table 1 together with the doses of the test substances. […] From the above results, K4 and G4L4 are not considered to induce active systemic anaphylaxis in guinea pigs.

[2] = tested on: guinea pig neutrophils; assay: Effect on O2− generation by guinea pig neutrophils induced by FMLP stimulation; assay type: cell-based; settings: for relative inhibition rate to the control of O2− generation: 1 mg/ml, preincubation 37° C. 1 hour; for suppression of O2− generation by neutrophils (in words): 0.01 to 1 mg/ml
Experimental: A 0.2% aqueous solution of glycogen in physiological saline was autoclaved, and 20 ml of the solution was intraperitoneally administered to a Hartley female guinea pig. The animal was killed by exsanguination 16 hours later, 20 ml of physiological saline containing 10 U/ml of heparin was injected into the abdominal cavity, and the peritoneal exudate was collected. The exudate was centrifuged at 1000 rpm for 10 minutes on a desk-top centrifugal machine, and purified water was added to the precipitate to cause hemolysis for 30 seconds. The solution was made isotonic again with Hank's balanced salt solution at 2-fold concentration, and centrifuged at 1000 rpm for 10 minutes. A procedure of resuspension of the precipitates in the Hank's balanced salt solution and centrifugation was repeated twice to obtain neutrophils. The obtained guinea pig neutrophils were suspended in Hank's balanced salt solution, and the leukocyte number was counted by a blood cell counter (Sysmex K-2000). A suspension diluted with Hank's balanced salt solution to 2×10^6 cells/ml was used for the experiment as a cell suspension.
1 ml of the-cell suspension and 10 μl of a solution of test substance at a known concentration (in a control, keratan sulfate oligosaccharide was not added) were mixed, preincubated at 37° C. for 1 hour, and 50 μl of 1.6 mM cytochrome C solution and 100 μl of 0.1 mM FMLP solution were successively added thereto and mixed. The mixture was incubated at 37° C. for 10 minutes, and the reaction was stopped by cooling with ice. The reaction mixture was centrifuged at 3000 rpm for 5 minutes, and absorbance of the supernatant was measured at a wavelength of 550 nm. All of the aforementioned procedures except for the incubation were performed with ice cooling.

[3] = tested on: normal mice; assay type: in vivo; settings: for body weight thereafter: all mice, 2,000 mg/kg i.v. once, after the next day up to 14 days; for body weight on the next day of the administration: male mice, 2,000 mg/kg i.v. once; for general condition immediately after the administration: mice, 2,000 mg/kg i.v. once; for death: mice, male and female groups, 2,000 mg/kg i.v. once, observed 14 days
Experimental: From the above results, the least fatal dose of K4 and G4L4 for single intravenous administration is considered to be 2,000 mg/kg or higher. Therefore, LD50 of K4 and G4L4 for single intravenous administration exceeds 2,000 mg/kg for both of male and female mice.

Row | Molecule | anaphylatic reaction after induction [1] | relative inhibition rate to the control of O2− generation [2] [%] | suppression of O2− generation by neutrophils (in words) [2] | body weight thereafter [3] | body weight on the next day of the administration [3] | general condition immediately after the administration [3] | death [3]
1 | CC(=O)N[C@@H]1[C@@H](O)[C@H](O[C@@H]2O[C@H](COS(=O)(=O)[O-])[C@H](O)[C@H](O[C@@H]3O[C@H](COS(=O)(=O)[O-])[C@@H](O)[C@H](O)[C@H]3NC(C)=O)[C@H]2O)[C@@H](COS(=O)(=O)[O-])O[C@H]1O.[Na+].[Na+].[Na+] [Compound G4L4, O-(2-Acetamido-2-deoxy-6-O-sulfo-β-D-glucopyranosyl)-(1→3)-O-(6-O-sulfo-β-D-galactopyranosyl)-(1→4)-O-2-acetamido-2-deoxy-6-O-sulfo-β-D-glucopyranose Trisodium Salt] | No anaphylatic reaction was observed | 57.1 | markedly suppressed | favorable body weight increase | slight weight loss | paralytic gait was observed for every mouse | No death was observed
2 | CC(=O)NC1C(O)OC(COS(=O)(=O)[O-])C(OC2OC(COS(=O)(=O)[O-])C(O)C(OC3OC(COS(=O)(=O)[O-])C(OC4OC(COS(=O)(=O)[O-])C(O)C(O)C4O)C(O)C3NC(C)=O)C2O)C1O.[Na+].[Na+].[Na+].[Na+] (centres unmarked) [Compound L4L4, reference compound] |  | 50.6 | markedly suppressed |  |  |  | 
3 | CC(=O)N[C@H]1[C@H](O[C@@H]2[C@@H](O)[C@H](O)O[C@H](COS(=O)(=O)[O-])[C@@H]2O)O[C@H](COS(=O)(=O)[O-])[C@@H](O)[C@@H]1O.[Na+].[Na+] [Compound K4, O-(2-Acetamido-2-deoxy-6-O-sulfo-β-D-glucopyranosyl)-(1→3)-O-6-O-sulfo-β-D-galactopyranose Disodium Salt] | No anaphylatic reaction was observed | 44.7 | markedly suppressed | favorable body weight increase | slight weight loss | paralytic gait was observed for every mouse | No death was observed
4 | B1 | showed anaphylatic reaction |  |  |  |  |  | 

— US6562954B1, “Method for producing oligosaccharide, and novel oligosaccharide and pharmaceutical composition containing the same” (Seikagaku Corporation, priority 1999, dated 2003)
